Source: patent US12023336B2, “Antiviral drug compounds and composition thereof” (priority 2018, dated 2024)

What was measured:
[1] = system: HIV-1NL4.3; format: cell-based
Method: Cells were then treated with molecules at different concentrations.

[2] = system: HIV-1NL4.3
Method: 72-hours post infection supernatant was collected and virus production was determined by p24 antigen capture ELISA.
(§1) Cytotoxicity of MTX-HYD and MTX and their analogues was determined by MTT cell proliferation assay kit, (Roche, Germany) as described earlier. Briefly, cells were seeded at the density of 25,000 cells/well in 96 well plate containing 100 μL of RPMI. Molecules at different concentration was added to the media and incubated in humidified CO2 incubator. Untreated cells were taken as negative control and DMSO treated cells were taken as vehicle control. 48-hours post incubation, 10 μL of MTT (5 mg/mL) was added in each well in dark and incubated at 37° C. for the formation of formazan crystals. 4-hours post incubation, the crystals were dissolved using 100 μL isopropanol and the absorbance was read at 570 nm.
(§2) Cells were then treated with molecules at different concentrations. Untreated cells were taken as negative control and DMSO treated cells were taken as vehicle control.

[3] = system: different isolates of HIV-1; assay: Anti-HIV activity against different isolates of HIV-1 in CEM-GFP cells and hPBMCs, p24 ELISA; format: cell-based
Method: as §2

[4] = MTT cytotoxicity in different cell types (CEM-GFP, Jurkat J6, U937, hPBMCs); format: cell-based; conditions: human; all the cell types tested (CEM-GFP, Jurkat J6, U937, hPBMCs)
Text: FIG. 2. depicts that MTX-HYD has similar cytotoxicity profile in different cell types. […] Untreated and DMSO treated cells were taken as controls.

[5] = biological target: T1, HIV-1 integrase (Human immunodeficiency virus type 1 group M subtype B, UniProt P04585); assay: Cell free assay for HIV-1 Integrase activity; format: biochemical; conditions: 100 nM
T1 construct: HIV-1 integrase enzyme; purchased XpressBio, USA
Method: (§3) MTX-HYD (100 nM) was tested on viral enzymes Reverse Transcriptase (a), Integrase (b) and Protease (c) in an in vitro cell free assay system. Nevirapine (NVP) (500 nM), Raltegravir (RLT) (1 μM), and Indinavir (IND) (500 nM) were used as the control inhibitors of RT, IN, and PR respectively. Untreated wells (UNT) were considered as negative controls. […] 72-hours post-infection virus production was determined in supernatant by p24 antigen capture ELISA (n=3).
MTX-HYD was tested for its effect, if any, on HIV-1 Integrase enzyme using HIV-1 integrase assay kit (XpressBio, USA) according to manufacturer's protocol. Briefly, biotin coated 5′ Donor Strand (DS) was loaded on to streptavidin coated wells and incubated at 37° C. 30-minutes post incubation, wells were washed and unattached DS was removed. After washing, HIV-1 integrase enzyme and Transfer Strand (TS) were added to the wells in presence of MTX-HYD and incubated at 37° C. Raltegravir treated wells were taken as positive controls whereas untreated wells were taken as negative control and DMSO treated wells were taken as vehicle control. 30-minutes post incubation, wells were washed and 100 μL/well TMB substrate was added and incubated for […] at room temperature. 100 μL/well TMB stop solution was added and absorbance was measured at 450 nm.

[6] = system: NF-kB pathway; assay: Immunoblotting of IkB phosphorylation and p65 in HIV-1NL4.3 infected CEM-GFP cells; format: cell-based; conditions: 100 nM, 24, 48, 72 h post infection
Method: (a) CEM-GFP cells were infected with 0.5 MOI of HIV-1NL4.3 in presence or absence of MTX-HYD (100 nM). Cells were harvested at different time points (24 h, 48 h and 72 h) post-infection. Phosphorylation of IxB was analysed by immunoblotting. (c) CEM-GFP cells were infected with 0.5MOI of HIV-1NL4.3 in presence or absence of MTX-HYD (100 nM) and nuclear cytoplasmic fractions were prepared using NE-PER nuclear-cytoplasmic fractionation kit. p65 levels in both cytoplasm and nucleus were analyzed by immunoblotting. (b and d) Densitometric analysis of immunoblots using QuantityOne software (n=3).

[7] = biological target: T2, HIV-1 protease (Human immunodeficiency virus type 1 group M subtype B, UniProt P04585); assay: Cell free assay for HIV-1 Protease activity; format: biochemical; conditions: 100 nM
T2 construct: HIV-1 protease enzyme; purchased Biovision, USA
Method: as §3
Effect of MTX-HYD on HIV-1 Protease enzyme was determined using HIV-1 Protease Activity Assay Kit, Fluorometric (Biovision, USA) according to manufacturer's protocol. Briefly, in a single step reaction, HIV-1 protease enzyme was diluted in reaction buffer and 10 nmol/well was loaded in 96 well plate in presence or absence of MTX-HYD (100 nM). Indinavir (IND) (500 nM) treated wells were taken as positive control and untreated wells were considered as negative control. 15-minutes post addition, Fluorescence was measured using Molecular Devices M5 at Ex/Em=330/450 nm (FIG. 6).

[8] = system: HIV-1NL4.3; assay: microbe, parasite or virus in culture; format: cell-based; conditions: Human immunodeficiency virus 1; 10 μM; HIV-1NL4.3 0.1 MOI; TZM-bl cells; luminescence 48 h; read-out: % Inhibition at 10 μM Concentration
Method: TZM-bl cells were seeded at the density of 12,000-15,000 cells/well of 96 well plate with 100 μL DMEM (with 10% FBS) in each well. 12-hours post seeding, the media was replaced with fresh DMEM containing HTV-1NL4.3 at 0.1 MOI and cells were treated with different molecules independently at 10 μM working concentration. Cells were incubated in humidified CO2 incubator for 4-hours. After incubation, the media was replaced and cells were washed twice with incomplete DMEM and 100 μL of complete DMEM was added in each wells along with the molecules of interest and incubated at 37° C. in humidified CO2 incubator. 48-hours post incubation, the media was removed and cells were washed twice with 100 μL of 1×PBS. After washing, cells were lysed using cell culture lysis reagent and Steady-Glo substrate was added at 1:1 ration in each well. Luminescence was measured using Molecular Devices M5 (Table 2). % Inhibition was calculated using following formula and plotted.
[formula] (RLU=Relative Luminescence Unit)

[9] = biological target: T3, HIV-1 reverse transcriptase (Human immunodeficiency virus type 1 group M subtype B, UniProt P04585); assay: RNA dependent DNA polymerase activity assay of HIV-1 RT (RDDP assay); format: biochemical; conditions: 100 nM; cell free
T3 construct: recombinant HIV-1 reverse transcriptase enzyme; purchased Roche, Germany
Method: as §3
Effect of MTX-HYD and MTX on RNA dependent DNA polymerase activity of HIV-1 RT enzyme was tested with HIV-1 reverse transcriptase colorimetric assay kit (Roche, Germany) according to manufacturer's protocol. Briefly, 0.5 ng of recombinant HIV-1 reverse transcriptase enzyme in reaction buffer in presence or absence of MTX-HYD were incubated at room temperature for 5-10 min. Nevirapine (500 nM) treated wells were taken as positive control whereas untreated wells were taken as negative control and DMSO treated wells were taken as vehicle control. The reaction mixture containing Poly rA/OligodT (template/primers) and biotin or digoxigenin labelled dUTP nucleotide mixture was added to initiate the reverse transcription at 37° C. for 12-16 hours. […] ABTS substrate was then added to observe the colour reaction, which was read at 405 nm.

[10] = system: CEM-GFP cells; assay: MTT cell viability assay in CEM-GFP cells; format: cell-based; conditions: concentration at which cell viability was 50%
Method: (a-b) CEM-GFP cells were treated with different concentrations of MTX-HYD and MTX and cytotoxicity was determined by MTT cell viability assay. […] (c-d) CEM-GFP cells were infected with 0.5 MOI (Multiplicity of infection) of HIV-1NL4.3 virus in presence of MTX-HYD or MTX. 72-hours post infection supernatant was collected and virus production was determined by p24 antigen capture ELISA.
as §1

IC50 ([1]; CEM-GFP cells, HIV-1NL4.3 0.5 MOI, p24 ELISA 72 h post infection)	SMILES	inhibition of replication of HIV-1NL4.3 ([1]; 100 nM, CEM-GFP (FIG. 9))	TI (Therapeutic index = CC50/IC50) ([1]; CEM-GFP cells)	therapeutic index compared with MTX-HYD ([1]; CEM-GFP cells, HIV-1NL4.3)	therapeutic index (TI) in hPBMCs ([2]; HIV-1NL4.3 0.5 MOI)	inhibition of HIV-1NL4.3 replication in primary cells ([2]; hPBMCs)	anti-HIV activity across virus isolates ([3]; 25 nM, 0.5 MOI of different isolates)	Therapeutic Index compared with MTX-HYD, other virus isolates ([3]; HIV-1IndieC, HIV-1IIIB, HIV-1ADA, HIV-189.6)	stage of virus life cycle at which it acts ([1]; 100 nM, treated at different stages of virus infection, CEM-GFP)	anti-HIV potential better than MTX ([1]; versus MTX (FIG. 1))	CC50 at 48 h [4]	effect on Integrase [5]	IkB phosphorylation [6]	anti-HIV activity across virus isolates and viral loads ([3]; 0.5 MOI of different isolates, 0.01, 0.1 and 1 MOI of HIV-1NL4.3)	effect on Protease [7]	inhibition at 10 µM [8]	effect on Reverse Transcriptase [9]	CC50 [10]
–	[2H]C([2H])([2H])N(Cc1cnc2nc(N)nc(N)c2n1)c1ccc(C(=O)NC(CCC(=O)OC)C(=O)OC)cc1 (stereo not shown) [MTX-methyl-d3-Dimethyl Ester, Methotrexate-methyl-d3-Dimethyl ester]	inhibits replication of HIV-1NL4.3	4781.81	higher therapeutic index than MTX-HYD	significantly high therapeutic index (TI)	with high efficiency	not virus isolate specific phenomena	higher Therapeutic Index (TI) than Methotrexate Hydrate (MTX-HYD)	–	–	–	–	–	–	–	–	–	–
–	CN(Cc1cnc2nc(N)nc(N)c2n1)c1ccc(C(=O)N[C@@H](CCC(=O)O)C(=O)O)cc1 [Methotrexate Hydrate]	–	–	–	–	–	–	–	works at an early stage of the life cycle	~10 fold	50 to 75 µM	does not target viral enzymes	may inhibit IkB phosphorylation	not virus isolate and viral load dependent phenomena	does not target viral enzymes	98.5%	does not target viral enzymes	–
0.0737 ± 0.00165 µM	CN(Cc1cnc2nc(N)nc(N)c2n1)c1ccc(C(=O)N[C@@H](CCC(=O)N[C@@H](CCC(=O)N[C@@H](CCC(=O)N[C@@H](CCC(=O)N[C@@H](CCC(=O)N[C@@H](CCC(=O)N[C@@H](CCC(=O)O)C(=O)O)C(=O)O)C(=O)O)C(=O)O)C(=O)O)C(=O)O)C(=O)O)cc1 [MTX heptaglutamate]	–	541.87	–	–	–	–	–	–	–	–	–	–	–	–	–	–	39.9 ± 1 µM
